Laboratory results as given in patent US5158942A, “Process of using phospholipid derivatives to inhibit multiplication of the human immunodeficiency virus” (Boehringer Mannheim GmbH, priority 1989, dated 1992).
In brackets after ≈: the same amount, converted by molar mass.

Key:
HIV = experiment: Inhibition of HIV replication in HIV infected human T-lymphoma cells or human fetal lung cells; amount of virus determined by new infection of human fetal lung cells; assay type: cell-based; conditions: Human immunodeficiency virus 1, readout: new infection of human fetal lung cells, read-out: IC50-value (concentration which results in an inhibition of the replication of 50%)
Protocol: HIV infected human T-lymphoma cells or human fetal lung cells were treated with the inventive compound by using different concentration ranges of the test compound. The amount of the viruses was then determined by way of new infection of human fetal lung cells. The decrease of the resulting positive HIV-infected cells was regarded as a measure for the antiviral activity of the compound tested.
The following table gives the corresponding concentration, which results in an inhibition of the replication of 50% (IC50 -value): […]

[1] = M. S. Hirsch, J. Infect. Dis., 157, 427-431/1988; cited from earlier work

SMILES | IC50 (HIV) [µg/mL] | toxicities in the therapeutic range [1]
CCCCCCCCCCCOC(COP(=O)([O-])OCC[N+](C)(C)C)C[S+]([O-])CCCCCCCCCCC (stereo not shown) [Example 24, 3-Undecylsulphinyl-2-undecyloxypropyl-1-phosphoric acid monocholine ester] | 4 (≈ 6.69 µM) | 
CCCCCCCCCCCSCC(COP(=O)([O-])OCC[N+](C)(C)C)OCCCCCCCCCC (stereo not shown) [Example 11, 3-Undecylmercapto-2-decyloxypropyl-1-phosphoric acid monocholine ester] | 20 (≈ 35.2 µM) | 
CCCCCCCCCCCCOC(COP(=O)([O-])OCC[N+](C)(C)C)CS(=O)(=O)CCCCCCCCCC (stereo not shown) [Example 9, 3-Decylsulphonyl-2-dodecyloxypropyl-1-phosphoric acid monocholine ester] | 2 (≈ 3.26 µM) | 
CCCCCCCCCCCCS(=O)(=O)CC(COP(=O)([O-])OCC[N+](C)(C)C)OCCCCCCCCCC (stereo not shown) [Example 8, 3-Dodecylsulphonyl-2-decyloxypropyl-1-phosphoric acid monocholine ester] | 2 (≈ 3.26 µM) | 
CCCCCCCCCCCCCCSCC(COP(=O)([O-])OCC[N+](C)(C)C)OCCCCCCCCCC (stereo not shown) [Example 13, 3-Tetradecylmercapto-2-decyloxypropyl-1-phosphoric acid monocholine ester] | 4 (≈ 6.56 µM) | 
CCCCCCCCCCCC[S+]([O-])CC(COP(=O)([O-])OCC[N+](C)(C)C)OCCCCCCCCCC (stereo not shown) [Example 22, 3-Dodecylsulphinyl-2-decyloxypropyl-1-phosphoric acid monocholine ester] | 4 (≈ 6.69 µM) | 
Cc1cn([C@H]2C[C@H](N=[N+]=[N-])[C@@H](CO)O2)c(=O)[nH]c1=O [AZT, 3'-azido-3'deoxythymidine] |  | very severe toxicities occurring even in the therapeutic range
CCCCCCCCCCCCCCCCOC(COP(=O)([O-])OCC[N+](C)(C)C)CSCCCCCCCCCC (stereo not shown) [Example 6, 3-Decylmercapto-2-hexadecyloxypropyl-1-phosphoric acid monocholine ester] | 50 (≈ 78.4 µM) | 
CCCCCCCCCCCCSCC(COP(=O)([O-])OCC[N+](C)(C)C)NC(=O)CCCCCCCCCC (stereo not shown) [Example 21, 3-Dodecylmercapto-2-decylcarbonylaminopropyl-1-phosphoric acid monocholine ester] | 5 (≈ 8.21 µM) | 

Second part, led by results:

IC50 (HIV) [µg/mL] | SMILES | toxicities in the therapeutic range [1]
20 (≈ 31.3 µM) | CCCCCCCCCCCCCCCCSCC(COP(=O)([O-])OCC[N+](C)(C)C)OCCCCCCCCCC (stereo not shown) [Example 5, 3-Hexadecylmercapto-2-decyloxypropyl-1-phosphoric acid monocholine ester] | 
4 (≈ 6.56 µM) | CCCCCCCCCCCCOC(COP(=O)([O-])OCC[N+](C)(C)C)CSCCCCCCCCCCCC (stereo not shown) [Example 4, 3-Dodecylmercapto-2-dodecyloxypropyl-1-phosphoric acid monocholine ester] | 
4 (≈ 6.39 µM) | CCCCCCCCCCCCSCC(CSCCCCCCCCCCCC)OP(=O)([O-])OCC[N+](C)(C)C [Example 20, 1,3-Bis-(dodecylmercapto)-propyl-1-phosphoric acid monocholine ester] | 
2 (≈ 3.27 µM) | CCCCCCCCCCCCC[S+]([O-])CC(COP(=O)([O-])OCC[N+](C)(C)C)OCCCCCCCCCC (stereo not shown) [Example 25, 3-Tridecylsulphinyl-2-decyloxypropyl-1-phosphoric acid monocholine ester] | 
